# According to patent US11304417B2, “Method of protecting determinate soybean from damage by a plant pathogen” (SUMITOMO CHEMICAL COMPANY, LIMITED, priority 2019, dated 2022):
# Experiments:
# Assay type in all cases: in vivo
# [1] = test system: Asian soybean rust (Phakopsora pachyrhizi); assay: Seed coating with mefentrifluconazole, Asian soybean rust inoculation, fresh weight of aerial part (Example 2 / Comparative Example 2); conditions: seed coating 0.2 mg per seed, 20 g per hectare, 14 days from inoculation
# Method: Seeds of determinate soybean are coated with a mefentrifluconazole aqueous suspension concentrate so that the amount of mefentrifluconazole to be applied to each seed may be 0.2 mg. Then, the determinate soybean seeds are sown to a pot filled with a soil at a sowing rate of 100,000 seeds per hectare. That is, the application rate of mefentrifluconazole is 20 g per hectare. Then, the determinate soybean is incubated in a greenhouse for 10 days, followed by inoculating a pathogen of Asian soybean rust (Phakopsora pachyrhizi) to the foliage of determinate soybean. The determinate soybean is incubated in a greenhouse for 14 days from the inoculation, and then the fresh weight of the aerial part of the determinate soybean is measured. It is confirmed that the fresh weight is equivalent to that of the control where determinate soybean is not treated with mefentrifluconazole and the pathogen is not inoculated (no-treatment-no-inoculation control) and is bigger than that of the control where determinate soybean is not treated with mefentrifluconazole and the pathogen is inoculated (no-treatment-inoculation control). The same procedure of the example 2 is repeated except for replacing determinate soybean with indeterminate soybean or semi-determinate soybean. It is confirmed that the fresh weight of indeterminate soybean or semi-determinate soybean is smaller than that of the corresponding no-treatment-no-inoculation control and is equivalent to that of the corresponding no-treatment-inoculation control.
# [2] = test system: Asian soybean rust (Phakopsora pachyrhizi); assay: Seed dipping with mefentrifluconazole, Asian soybean rust inoculation, fresh weight of aerial part (Example 4 / Comparative Example 4); conditions: 200 g per hectare; for Treatment/control ratio (100 × A/B): seed dipping 0.2 mg per seed, 7 days from inoculation; for Protection from the damage by the pathogen: seed dipping
# Method: Seeds of two varieties of determinate soybean were separately dipped in a mefentrifluconazole dilution liquid (prepared by diluting an aqueous suspension concentrate of mefentrifluconazole with water) so that the amount of mefentrifluconazole to be applied to each seed might be 0.2 mg. Then, the determinate soybean seeds were sown to a pot filled with a soil at a sowing rate of 1,000,000 seeds per hectare. That is, the application rate of mefentrifluconazole was 200 g per hectare. Each determinate soybean was incubated in a greenhouse for 11 days from the sowing, and then a pathogen of Asian soybean rust (Phakopsora pachyrhizi) was inoculated to the foliage of each determinate soybean. Each determinate soybean was incubated in a greenhouse for 7 days from the inoculation, and then fresh weight of the aerial part of each determinate soybean was measured. The fresh weight is referred to as ‘the fresh weight in treatment plot’. As a control experiment, the same procedure was repeated except that dipping treatment with mefentrifluconazole dilution liquid and the inoculation of the pathogen were not conducted. The fresh weight obtained in the control experiment is referred to as ‘the fresh weight in control plot’. The same procedure of the example 4 was repeated except for replacing two varieties of determinate soybean with two varieties of indeterminate soybean.
# [3] = test system: Asian soybean rust (Phakopsora pachyrhizi); assay: Dripping mefentrifluconazole onto primary leaf, Asian soybean rust inoculation, fresh weight of aerial part (Example 3 / Comparative Example 3); conditions: dripped onto primary leaf 0.2 mg per plant, 200 g per hectare, 14 days from inoculation
# Method: Determinate soybean is sown to a pot filled with a soil at a sowing rate of 1,000,000 seeds per hectare. The determinate soybean is incubated for 10 days in a greenhouse, and then mefentrifluconazole dilution liquid (prepared by diluting an aqueous suspension concentrate of mefentrifluconazole with water) is dripped onto the primary leaf of determinate soybean so that the amount of mefentrifluconazole to be applied to each plant may be 0.2 mg. That is, the application rate of mefentrifluconazole is 200 g per hectare. On the next day of the application, a pathogen of Asian soybean rust (Phakopsora pachyrhizi) is inoculated to the foliage of determinate soybean. The determinate soybean is incubated in a greenhouse for 14 days from the inoculation, and then fresh weight of the aerial part of the determinate soybean is measured. It is confirmed that the fresh weight is equivalent to that of the control where determinate soybean is not treated with mefentrifluconazole and the pathogen is not inoculated (no-treatment-no-inoculation control) and is bigger than that of the control where determinate soybean is not treated with mefentrifluconazole and the pathogen is inoculated (no-treatment-inoculation control).
# The same procedure of the example 3 is repeated except for replacing determinate soybean with indeterminate soybean or semi-determinate soybean. It is confirmed that the fresh weight of indeterminate soybean or semi-determinate soybean is smaller than that of the corresponding no-treatment-no-inoculation control and is equivalent to that of the corresponding no-treatment-inoculation control.
# [4] = test system: Asian soybean rust (Phakopsora pachyrhizi); assay: Foliar spray of mefentrifluconazole, Asian soybean rust inoculation, fresh weight of aerial part (Example 1 / Comparative Example 1); conditions: foliar spray 500 g per hectare, 14 days from inoculation
# Method: Determinate soybean is sown to a pot filled with a soil. It is incubated for 7 days in a greenhouse. Mefentrifluconazole spray liquid (prepared by diluting an aqueous suspension concentrate of mefentrifluconazole with water) is uniformly sprayed onto the foliage of determinate soybean at the amount of 200 L per hectare so that the application rate of mefentrifluconazole may be 500 g per hectare. On the next day of the spraying, a pathogen of Asian soybean rust (Phakopsora pachyrhizi) is inoculated to the foliage of determinate soybean. The determinate soybean is incubated in a greenhouse for 14 days from the inoculation, and then fresh weight of the aerial part of the determinate soybean is measured. It is confirmed that the fresh weight is equivalent to that of the control where determinate soybean is not treated with mefentrifluconazole and the pathogen is not inoculated (no-treatment-no-inoculation control) and is bigger than that of the control where determinate soybean is not treated with mefentrifluconazole and the pathogen is inoculated (no-treatment-inoculation control). The same procedure of the example 1 is repeated except for replacing determinate soybean with indeterminate soybean or semi-determinate soybean. It is confirmed that the fresh weight of indeterminate soybean or semi-determinate soybean is smaller than that of the corresponding no-treatment-no-inoculation control and is equivalent to that of the corresponding no-treatment-inoculation control.
# [5] = test system: Asian soybean rust (Phakopsora pachyrhizi); assay: Dripping mefentrifluconazole onto apical bud, Asian soybean rust inoculation, fresh weight of aerial part (Example 5 / Comparative Example 5); conditions: 500 g per hectare; for Treatment/control ratio (100 × A/B): dripped onto apical bud 0.5 mg per plant, 7 days from inoculation
# Method: Two varieties of determinate soybean were sown to a pot filled with a soil at a sowing rate of 1,000,000 seeds per hectare. Then each determinate soybean was incubated for […] in a greenhouse. A mefentrifluconazole dilution liquid (prepared by diluting an aqueous suspension concentrate of mefentrifluconazole with water) is dripped onto the apical bud of determinate soybean plants so that the amount of mefentrifluconazole to be applied to each plant might be 0.5 mg. That is, the application rate of mefentrifluconazole was 500 g per hectare. Three days after the application, a pathogen of Asian soybean rust (Phakopsora pachyrhizi) was inoculated to the foliage of each determinate soybean. Each determinate soybean was incubated in a greenhouse for 7 days from the inoculation, and then fresh weight of the aerial part of each determinate soybean was measured. The fresh weight is referred to as ‘the fresh weight in treatment plot’.
# As a control experiment, the same procedure was repeated except that dripping treatment with mefentrifluconazole dilution liquid and the inoculation of the pathogen were not conducted. The fresh weight obtained in the control experiment is referred to as ‘the fresh weight in control plot’.
# The same procedure of the example 5 was repeated except for replacing two varieties of determinate soybean with two varieties of indeterminate soybean.
# [6] = indeterminate or semi-determinate soybean
# [7] = Kurosengoku, indeterminate soybean
# [8] = Toyomusume, determinate soybean
smiles,measurement,setting,value
CC(O)(Cn1cncn1)c1ccc(Oc2ccc(Cl)cc2)cc1C(F)(F)F (centres unmarked) [mefentrifluconazole],Fresh weight of aerial part compared with no-treatment-inoculation control,[1]; determinate soybean,bigger
same,Fresh weight of aerial part compared with no-treatment-no-inoculation control,[1]; determinate soybean,equivalent
same,Fresh weight of aerial part compared with no-treatment-inoculation control,[1]; [6],equivalent
same,Fresh weight of aerial part compared with no-treatment-no-inoculation control,[1]; [6],smaller
same,Treatment/control ratio (100 × A/B),"[2]; Harosoy, indeterminate soybean",55
same,Treatment/control ratio (100 × A/B),[2]; [7],68
same,Treatment/control ratio (100 × A/B),"[2]; Tambaguro, determinate soybean",104
same,Treatment/control ratio (100 × A/B),[2]; [8],105
same,Protection from the damage by the pathogen,[2]; determinate soybean (Table 1),successfully protected
same,Protection from the damage by the pathogen,[2]; indeterminate soybean (Table 2),not successfully protected
same,Fresh weight of aerial part compared with no-treatment-inoculation control,[3]; determinate soybean,bigger
same,Fresh weight of aerial part compared with no-treatment-no-inoculation control,[3]; determinate soybean,equivalent
same,Fresh weight of aerial part compared with no-treatment-inoculation control,[3]; [6],equivalent
same,Fresh weight of aerial part compared with no-treatment-no-inoculation control,[3]; [6],smaller
same,Fresh weight of aerial part compared with no-treatment-inoculation control,[4]; determinate soybean,bigger
same,Fresh weight of aerial part compared with no-treatment-no-inoculation control,[4]; determinate soybean,equivalent
same,Fresh weight of aerial part compared with no-treatment-inoculation control,[4]; [6],equivalent
same,Fresh weight of aerial part compared with no-treatment-no-inoculation control,[4]; [6],smaller
same,Treatment/control ratio (100 × A/B),[5]; [7],49
same,Treatment/control ratio (100 × A/B),"[5]; Tambaguro, determinate soybean",82
same,Treatment/control ratio (100 × A/B),[5]; [8],85
same,Treatment/control ratio (100 × A/B),"[5]; Williams 82, indeterminate soybean",39
same,Protection from the damage by the pathogen,"[5]; determinate versus indeterminate soybeans (Tables 3 and 4), dripped onto apical bud",protected much more effectively compared with indeterminate soybeans
